Test results taken from patent US12600709B2, “Nonpeptide somatostatin type 5 receptor agonists and uses thereof” (Crinetics Pharmaceuticals, Inc., priority 2019, dated 2026).
Read-outs that look alike come from different tables or passages of the source.

Experiments:
[1] = biological target: T1, human somatostatin receptor subtype 5 (Homo sapiens, UniProt P35346); assay: cAMP assay for SST5R (inhibition of cAMP in CHO-K1 cells); format: cell-based; conditions: for EC50: inhibition of cAMP via human SST5 receptor, read-out: SST5 potency; for Fold selectivity for SST5 vs SST2: class symbols, SST5 receptor over SST2 receptor
T1 construct: expressed in transfected cells
T1 sequence (P35346 whole entry): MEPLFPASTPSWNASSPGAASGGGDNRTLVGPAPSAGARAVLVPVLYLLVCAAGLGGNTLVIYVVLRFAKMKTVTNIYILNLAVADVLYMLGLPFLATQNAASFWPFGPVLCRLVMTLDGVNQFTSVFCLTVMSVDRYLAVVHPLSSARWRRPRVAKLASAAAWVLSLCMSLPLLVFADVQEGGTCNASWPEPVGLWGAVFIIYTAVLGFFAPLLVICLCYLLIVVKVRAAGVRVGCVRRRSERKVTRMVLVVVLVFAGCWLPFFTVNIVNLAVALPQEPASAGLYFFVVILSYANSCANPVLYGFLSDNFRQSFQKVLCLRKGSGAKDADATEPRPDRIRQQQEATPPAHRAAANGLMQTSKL
Procedure, shortened: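 CHO-K1 cells stably expressing human SSTR5 were treated 20 min at 37 °C with compounds plus 1.6 μM NKH477 in HBSS, 0.5 mM HEPES pH 7.4, 0.1% BSA, 0.2 mM IBMX. Lysate cAMP measured by HTRF against a standard curve; EC50 from cAMP-versus-concentration plots.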

[2] = biological target: T2, human somatostatin receptor subtype 2 (Homo sapiens, UniProt P30874); assay: cAMP assay for SST2R (inhibition of cAMP in CHO-K1 cells); format: cell-based; conditions: Table B; inhibition of cAMP via human SST2 receptor; read-out: SST2 potency
T2 construct: expressed in transfected cells
T2 sequence (P30874 whole entry): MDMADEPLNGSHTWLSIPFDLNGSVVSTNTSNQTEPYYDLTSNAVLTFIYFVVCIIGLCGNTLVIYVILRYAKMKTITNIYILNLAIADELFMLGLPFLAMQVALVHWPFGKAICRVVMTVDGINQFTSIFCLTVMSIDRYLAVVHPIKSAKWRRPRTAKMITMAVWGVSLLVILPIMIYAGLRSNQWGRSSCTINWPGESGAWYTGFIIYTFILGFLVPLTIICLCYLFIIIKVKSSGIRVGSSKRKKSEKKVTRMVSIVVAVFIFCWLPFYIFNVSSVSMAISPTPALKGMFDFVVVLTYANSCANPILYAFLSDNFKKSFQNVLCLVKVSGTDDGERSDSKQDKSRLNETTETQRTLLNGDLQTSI
Procedure, shortened: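 Agonism read as decrease in NKH477 (1.6 μM)-stimulated cAMP: compounds applied 20 min, 37° C, with 0.2 mM IBMX, to CHO-K1 stably expressing human SSTR2. cAMP quantified in lysates by time-resolved fluorescence (HTRF kit, 1-24 h RT), standard-curve regression, then EC50.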

SMILES | EC50 ([1]; Table A) [nM] | Fold selectivity for SST5 vs SST2 ([1]; Table B) | EC50 ([1]; Table B) [nM] | EC50 [2] [nM]
C[C@H](NC(=O)c1cnc(C#N)c(-c2cc(F)cc(F)c2)c1N1CC[C@H](N)C1)C1CC1 [1-69, 4-[(3S)-3-aminopyrrolidin-1-yl]-6-cyano-N-[(1S)-1-cyclopropylethyl]-5-(3,5-difluorophenyl)pyridine-3-carboxamide] | < 10 | +++ (+++=>500) | < 10 | 100 to 1000
CC(N)C1CN(c2c(C(=O)NC34CC(C3)C4)cnc(C#N)c2-c2cc(F)cc(F)c2)C1 (centres unmarked) [1-100, 4-[3-(1-aminoethyl)azetidin-1-yl]-N-{bicyclo[1.1.1]pentan-1-yl}-6-cyano-5-(3,5-difluorophenyl)pyridine-3-carboxamide] | < 10 | +++ (+++=>500) | < 10 | > 1000
CC(C)CNC(=O)c1cnc(C#N)c(-c2ccnc(C(F)(F)F)c2)c1N1CC[C@](C)(N)C1 [1-250, 4-[(3S)-3-amino-3-methylpyrrolidin-1-yl]-2-cyano-N-(2-methylpropyl)-2′-(trifluoromethyl)-[3,4′-bipyridine]-5-carboxamide] | < 10 | +++ (+++=>500) | < 10 | > 1000
Cc1ncc(C(=O)N[C@@H](C)C2CC2)c(N2CC[C@](C)(N)C2)c1-c1cc(F)cc(Cl)c1 [1-125, 4-[(3S)-3-amino-3-methylpyrrolidin-1-yl]-5-(3-chloro-5-fluorophenyl)-N-[(1S)-1-cyclopropylethyl]-6-methylpyridine-3-carboxamide] | < 10 | +++ (+++=>500) | < 10 | 10 to 100
COc1ncc(C(=O)NC23CC(C2)C3)c(N2CC[C@](C)(N)C2)c1-c1cc(F)cc(F)c1 [1-130, 4-[(3S)-3-amino-3-methylpyrrolidin-1-yl]-N-{bicyclo[1.1.1]pentan-1-yl}-5-(3,5-difluorophenyl)-6-methoxypyridine-3-carboxamide] | < 10 | +++ (+++=>500) | < 10 | 100 to 1000
COc1ncc(C(=O)NC23CC(F)(C2)C3)c(N2CC[C@H](N)C2)c1-c1cc(F)cc(F)c1 [1-196, 4-[(3S)-3-aminopyrrolidin-1-yl]-5-(3,5-difluorophenyl)-N-{3-fluorobicyclo[1.1.1]pentan-1-yl}-6-methoxypyridine-3-carboxamide] | < 10 | +++ (+++=>500) | < 10 | > 1000
Cc1ccc(F)c2[nH]c(-c3cncc(C(=O)N[C@@H](C)C(F)(F)F)c3N3CC[C@](C)(N)C3)nc12 [2-30, 4-[(3S)-3-amino-3-methylpyrrolidin-1-yl]-5-(7-fluoro-4-methyl-1H-1,3-benzodiazol-2-yl)-N-[(2S)-1,1,1-trifluoropropan-2-yl]pyridine-3-carboxamide] | < 10 | + (+=10 to 99) | < 10 | 10 to 100
COc1ncc(C(=O)N[C@@H](C)c2ccccn2)c(N2CC[C@](C)(N)C2)c1-c1cc(F)cc(Cl)c1 [1-240, 4-[(3S)-3-amino-3-methylpyrrolidin-1-yl]-5-(3-chloro-5-fluorophenyl)-6-methoxy-N-[(1S)-1-(pyridin-2-yl)ethyl]pyridine-3-carboxamide] | < 10 | +++ (+++=>500) | < 10 | 100 to 1000
Cc1cccc2[nH]c(-c3cncc(C(=O)NCC(F)(F)F)c3N3CC[C@](C)(N)C3)nc12 [2-7, 4-[(3S)-3-amino-3-methylpyrrolidin-1-yl]-5-(4-methyl-1H-1,3-benzodiazol-2-yl)-N-(2,2,2-trifluoroethyl)pyridine-3-carboxamide] | < 10 | ++ (++=100 to 499) | < 10 | 100 to 1000
Cc1cc(F)cc(-c2cncc(C(=O)NC3CCC(F)(F)CC3)c2N2CC[C@](C)(N)C2)c1 [1-13, 4-[(3S)-3-amino-3-methylpyrrolidin-1-yl]-N-(4,4-difluorocyclohexyl)-5-(3-fluoro-5-methylphenyl)pyridine-3-carboxamide] | < 10 | +++ (+++=>500) | < 10 | 100 to 1000
Cc1cccc2[nH]c(-c3cncc(C(=O)NC4CCCCC4)c3N3CC[C@](C)(N)C3)nc12 [2-38, 4-[(3S)-3-amino-3-methylpyrrolidin-1-yl]-N-cyclohexyl-5-(4-methyl-1H-1,3-benzodiazol-2-yl)pyridine-3-carboxamide] | < 10 | + (+=10 to 99) | < 10 | 100 to 1000
N#Cc1ncc(C(=O)NC2CCCCCC2)c(N2CC[C@H](N)C2)c1-c1cc(F)cc(F)c1 [1-73, 4-[(3S)-3-aminopyrrolidin-1-yl]-6-cyano-N-cycloheptyl-5-(3,5-difluorophenyl)pyridine-3-carboxamide] | < 10 | +++ (+++=>500) | < 10 | > 1000
C[C@H](NC(=O)c1cnc(C#N)c(-c2cc(F)cc(F)c2)c1N1C[C@@H](N)[C@H](F)C1)C1CC1 [1-135, 4-[(3R,4R)-3-amino-4-fluoropyrrolidin-1-yl]-6-cyano-N-[(1S)-1-cyclopropylethyl]-5-(3,5-difluorophenyl)pyridine-3-carboxamide] | < 10 | +++ (+++=>500) | < 10 | 100 to 1000
Cc1cccc2[nH]c(-c3cncc(C(=O)N4CC5CCC4CC5)c3N3CC[C@](C)(N)C3)nc12 [2-35, (3S)-1-(3-{2-azabicyclo[2.2.2]octane-2-carbonyl}-5-(4-methyl-1H-1,3-benzodiazol-2-yl)pyridin-4-yl)-3-methylpyrrolidin-3-amine] | < 10 | ++ (++=100 to 499) | < 10 | 100 to 1000
COc1cc(-c2c(C)ncc(C(=O)NC3CCCCC3)c2N2CC[C@](C)(N)C2)ccn1 [1-255, 4-[(3S)-3-amino-3-methylpyrrolidin-1-yl]-N-cyclohexyl-2′-methoxy-2-methyl-[3,4′-bipyridine]-5-carboxamide] | < 10 | +++ (+++=>500) | < 10 | > 1000
Cc1cccc2[nH]c(-c3cncc(C(=O)NC45CC(C4)C5)c3N3CC[C@](C)(N)C3)nc12 [2-15, 4-[(3S)-3-amino-3-methylpyrrolidin-1-yl]-N-{bicyclo[1,1,1]pentan-1-yl}-5-(4-methyl-1H-1,3-benzodiazol-2-yl)pyridine-3-carboxamide] | < 10 | ++ (++=100 to 499) | < 10 | 100 to 1000
C[C@H](NC(=O)c1cnc(OCCCC(=O)O)c(-c2cc(F)cc(F)c2)c1N1CC[C@](C)(N)C1)C1CC1 [1-265, 4-({4-[(3S)-3-amino-3-methylpyrrolidin-1-yl]-5-{[(1S)-1-cyclopropylethyl]carbamoyl}-3-(3,5-difluorophenyl)pyridin-2-yl}oxy)butanoic acid] | < 10 | +++ (+++=>500) | < 10 | > 1000
COc1ncc(C(=O)NC2CC(F)(F)C2)c(N2CC[C@H](N)C2)c1-c1cc(F)cc(Cl)c1 [1-285, 4-[(3S)-3-aminopyrrolidin-1-yl]-5-(3-chloro-5-fluorophenyl)-N-(3,3-difluorocyclobutyl)-6-methoxypyridine-3-carboxamide] | < 10 | +++ (+++=>500) | < 10 | 100 to 1000
C[C@]1(N)CCN(c2c(C(=O)NCC(F)(F)F)cnc(C#N)c2-c2cc(F)cc(F)c2)C1 [1-92, 4-[(3S)-3-amino-3-methylpyrrolidin-1-yl]-6-cyano-5-(3,5-difluorophenyl)-N-(2,2,2-trifluoroethyl)pyridine-3-carboxamide] | < 10 | +++ (+++=>500) | < 10 | 100 to 1000
CCOc1cc(-c2c(C(F)(F)F)ncc(C(=O)N[C@@H](C)C3CC3)c2N2CC[C@](C)(N)C2)ccn1 [1-206, 4-[(3S)-3-amino-3-methylpyrrolidin-1-yl]-N-[(1S)-1-cyclopropylethyl]-2′-ethoxy-2-(trifluoromethyl)-[3,4′-bipyridine]-5-carboxamide] | < 10 | +++ (+++=>500) | < 10 | > 1000
C[C@@H](NC(=O)c1cncc(-c2cc(F)cc(F)c2)c1N1CC[C@](C)(N)C1)C1CC1 [1-44, 4-[(3S)-3-amino-3-methylpyrrolidin-1-yl]-N-[(1R)-1-cyclopropylethyl]-5-(3,5-difluorophenyl)pyridine-3-carboxamide] | < 10 | ++ (++=100 to 499) | < 10 | 100 to 1000
Cc1ncc(C(=O)NC23CC(C2)C3)c(N2CC[C@](C)(N)C2)c1-c1cc(F)cc(F)c1 [1-74, 4-[(3S)-3-amino-3-methylpyrrolidin-1-yl]-N-{bicyclo[1.1.1]pentan-1-yl}-5-(3,5-difluorophenyl)-6-methylpyridine-3-carboxamide] | < 10 | +++ (+++=>500) | < 10 | > 1000
CC1(C)CC(NC(=O)c2cncc(-c3cc(F)cc(F)c3)c2N2CC[C@](C)(N)C2)C1 [1-22, 4-[(3S)-3-amino-3-methylpyrrolidin-1-yl]-5-(3,5-difluorophenyl)-N-(3,3-dimethylcyclobutyl)pyridine-3-carboxamide] | < 10 | ++ (++=100 to 499) | < 10 | 100 to 1000
